According to US20230295212A1 (ROME Therapeutics, Inc., priority 2022, published 2023):

molecular target: T1, LINE1 reverse transcriptase (Homo sapiens, UniProt O00370); assay: Stable artificial-intron Cis LINE1 reporter assay (HeLa Tet-On 3G, Firefly luciferase); assay type: cell-based; conditions: HeLa L1 artificial-intron reporter cells, doxycycline 500 ng/mL, 72 h, class symbols
T1 construct: expressed in transfected cells; host or cells: HeLa Tet-On 3G (Takara, cat no 631183)
Description: Exemplary compounds, were tested for the ability to inhibit LINE1 reverse transcriptase using a stable artificial-intron Cis LINE1 reporter assay. Assay procedures and results are described below.
A stable HeLa Tet-On 3G (Takara, cat no 631183) cell line expressing a bi-directional inducible LINE1 construct was generated as described in Xie, Y. et al. “Cell division promotes efficient retrotransposition in a stable L1 reporter cell line,” Mobile DNA (2013) 4:10. Single cell clones were screened for high Luciferase expression and the highest expression Firefly expressing clone was chosen for compound testing.
Test compounds were serially diluted in DMSO and spotted in 96-well plates. Subsequently, the HeLa Li artificial-intron reporter cells were plated into the compound-containing wells (8,000 cells/well), and the cells were induced for reporter expression with doxycycline (Sigma-Aldrich cat #D9891) at a final concentration of 500 ng/mL. Luminescence was measured 72 h after plating using the Dual-Glo Luciferase Assay System (Promega cat #E2940) following the manufacturer's instructions. The Firefly Luciferase activity was used to report LINE1 activity.

T1 sequence (O00370 whole entry, looked up): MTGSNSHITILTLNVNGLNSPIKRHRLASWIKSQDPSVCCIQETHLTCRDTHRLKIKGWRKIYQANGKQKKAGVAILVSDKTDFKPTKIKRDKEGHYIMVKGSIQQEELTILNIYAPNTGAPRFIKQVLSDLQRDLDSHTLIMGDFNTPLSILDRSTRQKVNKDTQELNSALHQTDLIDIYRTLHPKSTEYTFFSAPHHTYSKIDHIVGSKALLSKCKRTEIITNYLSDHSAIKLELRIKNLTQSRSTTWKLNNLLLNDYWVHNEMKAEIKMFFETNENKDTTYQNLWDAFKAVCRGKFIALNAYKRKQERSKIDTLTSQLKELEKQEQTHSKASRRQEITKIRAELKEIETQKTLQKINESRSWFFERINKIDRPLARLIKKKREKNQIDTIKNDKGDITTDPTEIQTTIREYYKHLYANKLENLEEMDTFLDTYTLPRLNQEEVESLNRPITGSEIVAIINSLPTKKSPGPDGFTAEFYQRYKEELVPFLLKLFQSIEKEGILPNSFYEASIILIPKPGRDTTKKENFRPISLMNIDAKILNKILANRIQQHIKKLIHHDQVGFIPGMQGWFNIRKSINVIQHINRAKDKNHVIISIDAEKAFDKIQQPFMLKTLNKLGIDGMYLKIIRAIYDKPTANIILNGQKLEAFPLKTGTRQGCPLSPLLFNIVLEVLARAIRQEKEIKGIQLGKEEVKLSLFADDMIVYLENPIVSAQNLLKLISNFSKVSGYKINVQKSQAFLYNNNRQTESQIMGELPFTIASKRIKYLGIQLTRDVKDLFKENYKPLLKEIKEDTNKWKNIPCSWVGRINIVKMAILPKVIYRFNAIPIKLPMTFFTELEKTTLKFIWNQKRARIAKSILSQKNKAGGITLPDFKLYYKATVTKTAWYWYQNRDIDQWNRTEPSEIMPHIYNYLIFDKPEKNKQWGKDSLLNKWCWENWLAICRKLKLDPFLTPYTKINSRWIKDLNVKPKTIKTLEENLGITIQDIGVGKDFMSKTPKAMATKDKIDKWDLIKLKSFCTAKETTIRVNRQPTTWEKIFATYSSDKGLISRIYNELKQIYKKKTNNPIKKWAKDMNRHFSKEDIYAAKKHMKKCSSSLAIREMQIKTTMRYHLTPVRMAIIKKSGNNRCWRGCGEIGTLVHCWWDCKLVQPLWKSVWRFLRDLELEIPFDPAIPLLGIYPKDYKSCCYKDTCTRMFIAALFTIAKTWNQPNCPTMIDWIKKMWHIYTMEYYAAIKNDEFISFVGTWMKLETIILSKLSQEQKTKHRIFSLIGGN

Structure (SMILES)	IC50
C#C[C@]1(CO)O[C@@H](n2cnc3c(N)nc(Cl)nc32)[C@@H](F)[C@@H]1O [Compound 5, (2R,3R,4S,5R)-5-(6-amino-2-chloro-9H-purin-9-yl)-2-ethynyl-4-fluoro-2-(hydroxymethyl)tetrahydrofuran-3-ol]	50 to 100 nM
Nc1nc(F)nc2c1ncn2[C@H]1C[C@H](O)C(CO)(CO)O1 [Compound 10, ((3S,5R)-5-(6-amino-2-fluoro-9H-purin-9-yl)-3-hydroxytetrahydrofuran-2,2-diyl)dimethanol]	> 1000 nM
Nc1ccn([C@H]2C[C@H](O)[C@](CO)(C3CC3)O2)c(=O)n1 [Compound 16, 4-amino-1-((2R,4S,5R)-5-cyclopropyl-4-hydroxy-5-(hydroxymethyl)tetrahydrofuran-2-yl)pyrimidin-2(1H)-one]	250 to 1000 nM
C[C@@H]1[C@H](n2ccc(N)nc2=O)O[C@](C)(CO)[C@H]1O [Compound 19, 4-amino-1-((2R,3S,4S,5R)-4-hydroxy-5-(hydroxymethyl)-3,5-dimethyltetrahydrofuran-2-yl)pyrimidin-2(1H)-one]	250 to 1000 nM
C#C[C@@H]1[C@H](n2ccc(N)nc2=O)O[C@](C)(CO)[C@H]1O [Compound 20, 4-amino-1-((2R,3S,4S,5R)-3-ethynyl-4-hydroxy-5-(hydroxymethyl)-5-methyltetrahydrofuran-2-yl)pyrimidin-2(1H)-one]	> 1000 nM
Nc1ccn([C@H]2C[C@H](O)[C@](CO)(C(F)(F)F)O2)c(=O)n1 [Compound 21, 4-amino-1-((2R,4S,5R)-4-hydroxy-5-(hydroxymethyl)-5-(trifluoromethyl)tetrahydrofuran-2-yl)pyrimidin-2(1H)-one]	250 to 1000 nM
CC(C)C(=O)OC[C@@]1(CCl)O[C@@H](n2ccc(N)nc2=O)[C@H](F)[C@@H]1OC(=O)C(C)C [Compound 24, (2R,3R,4R,5R)-5-(4-amino-2-oxopyrimidin-1(2H)-yl)-2-(chloromethyl)-4-fluoro-2-((isobutyryloxy)methyl) tetrahydrofuran-3-yl isobutyrate]	250 to 1000 nM
C#C[C@]1(CO)O[C@@H](n2cnc3c(N)ncnc32)C[C@@H]1O [Compound 27, (2R,3S,5R)-5-(6-amino-9H-purin-9-yl)-2-ethynyl-2-(hydroxymethyl) tetrahydrofuran-3-ol]	≤ 50 nM
O=c1nc(NO)ccn1[C@@H]1O[C@@](CO)(CCl)[C@@H](O)[C@H]1F [Compound 28, 1-((2R,3R,4R,5R)-5-(chloromethyl)-3-fluoro-4-hydroxy-5-(hydroxymethyl)tetrahydrofuran-2-yl)-4-(hydroxyamino)pyrimidin-2(1H)-one]	> 1000 nM
Nc1ccn([C@@H]2O[C@@](CO)(CCl)[C@@H](O)[C@H]2F)c(=O)n1 [Compound 31, 4-amino-1-((2R,3R,4R,5R)-5-(chloromethyl)-3-fluoro-4-hydroxy-5-(hydroxymethyl)tetrahydrofuran-2-yl)pyrimidin-2(1H)-one]	≤ 50 nM

Results, then the compound that gave them:

IC50	Structure (SMILES)
> 1000 nM	O=c1ccn([C@@H]2OC(CO)(CO)[C@@H](O)[C@@H]2F)c(=O)[nH]1 [Compound 3, 1-((2R,3S,4R)-3-fluoro-4-hydroxy-5,5-bis(hydroxymethyl)tetrahydrofuran-2-yl)pyrimidine-2,4(1H,3H)-dione]
> 1000 nM	Cc1cn([C@H]2C[C@H](O)[C@](CO)(CCl)O2)c(=O)[nH]c1=O [Compound 4, 1-((2R,4S,5R)-5-(chloromethyl)-4-hydroxy-5-(hydroxymethyl)tetrahydrofuran-2-yl)-5-methylpyrimidine-2,4(1H,3H)-dione]
100 to 250 nM	O=c1nc(NO)ccn1[C@H]1C[C@H](O)[C@](CO)(CCl)O1 [Compound 6, 1-((2R,4S,5R)-5-(chloromethyl)-4-hydroxy-5-(hydroxymethyl)tetrahydrofuran-2-yl)-4-(hydroxyamino)pyrimidin-2(1H)-one]
> 1000 nM	Cc1cn([C@H]2C[C@H](F)[C@](CO)(CCl)O2)c(=O)[nH]c1=O [Compound 7, 1-((2R,4S,5R)-5-(chloromethyl)-4-fluoro-5-(hydroxymethyl)tetrahydrofuran-2-yl)-5-methylpyrimidine-2,4(1H,3H)-dione]
100 to 250 nM	Nc1nc(F)nc2c1ncn2[C@H]1C[C@H](O)[C@](CO)(CCl)O1 [Compound 8, (2R,3S,5R)-5-(6-amino-2-fluoro-9H-purin-9-yl)-2-(chloromethyl)-2-(hydroxymethyl)tetrahydrofuran-3-ol]
> 1000 nM	Cc1cn([C@@H]2O[C@@](CO)(CCl)[C@@H](O)[C@H]2F)c(=O)[nH]c1=O [Compound 9, 1-((2R,3R,4R,5R)-5-(chloromethyl)-3-fluoro-4-hydroxy-5-(hydroxymethyl)tetrahydrofuran-2-yl)-5-methylpyrimidine-2,4(1H,3H)-dione]
> 1000 nM	Cc1cn([C@H]2C[C@H](O)[C@](CO)(CCl)O2)c(=O)nc1N [Compound 11, 4-amino-1-((2R,4S,5R)-5-(chloromethyl)-4-hydroxy-5-(hydroxymethyl)tetrahydrofuran-2-yl)-5-methylpyrimidin-2(1H)-one]
250 to 1000 nM	C[C@@H]1[C@H](n2ccc(N)nc2=O)O[C@@](CO)(CCl)[C@H]1O [Compound 12, 4-amino-1-((2R,3S,4S,5R)-5-(chloromethyl)-4-hydroxy-5-(hydroxymethyl)-3-methyltetrahydrofuran-2-yl)pyrimidin-2(1H)-one]
250 to 1000 nM	CO[C@@H]1[C@H](n2ccc(N)nc2=O)O[C@@](CO)(CCl)[C@H]1O [Compound 13, 4-amino-1-((2R,3S,4S,5R)-5-(chloromethyl)-4-hydroxy-5-(hydroxymethyl)-3-methoxytetrahydrofuran-2-yl)pyrimidin-2(1H)-one]
250 to 1000 nM	Nc1ncnc2c1ncn2[C@H]1C[C@H](O)[C@](CO)(CCl)O1 [Compound 15, (2R,3S,5R)-5-(6-amino-9H-purin-9-yl)-2-(chloromethyl)-2-(hydroxymethyl)tetrahydrofuran-3-ol]
> 1000 nM	Nc1cnn([C@H]2C[C@H](O)[C@](CO)(CCl)O2)c(=O)n1 [Compound 18, 5-amino-2-((2R,4S,5R)-5-(chloromethyl)-4-hydroxy-5-(hydroxymethyl)tetrahydrofuran-2-yl)-1,2,4-triazin-3(2H)-one]
≤ 50 nM	Nc1nc(=O)n([C@H]2C[C@H](O)[C@](CO)(CF)O2)cc1F [Compound 22, 4-amino-5-fluoro-1-((2R,4S,5R)-5-(fluoromethyl)-4-hydroxy-5-(hydroxymethyl)tetrahydrofuran-2-yl)pyrimidin-2(1H)-one]
> 1000 nM	O=c1ccn([C@@H]2O[C@@](CO)(CCl)[C@@H](O)[C@H]2F)c(=O)[nH]1 [Compound 29, 1-((2R,3R,4R,5R)-5-(chloromethyl)-3-fluoro-4-hydroxy-5-(hydroxymethyl)tetrahydrofuran-2-yl)pyrimidine-2,4(1H,3H)-dione]
> 1000 nM	Cc1cn([C@H]2C[C@H](O)[C@](CO)(N=[N+]=[N-])O2)c(=O)[nH]c1=O [Compound 30, 1-((2R,4S,5R)-5-azido-4-hydroxy-5-(hydroxymethyl)tetrahydrofuran-2-yl)-5-methylpyrimidine-2,4(1H,3H)-dione]

same assay, conditions: HeLa L1 artificial-intron reporter cells, doxycycline 500 ng/mL, 72 h, numeric bounds

IC50	Structure (SMILES)
> 30000 nM	C#C[C@@H]1[C@H](n2ccc(N)nc2=O)O[C@@](CO)(CCl)[C@H]1O [Compound 17, 4-amino-1-((2R,3S,4S,5R)-5-(chloromethyl)-3-ethynyl-4-hydroxy-5-(hydroxymethyl)tetrahydrofuran-2-yl)pyrimidin-2(1H)-one]
